According to patent US20170166598A1, “HETEROARYL COMPOUNDS FOR KINASE INHIBITION” (ARIAD PHARMACEUTICALS, INC., priority 2014, published 2017):

Assays:
Format in all cases: cell-based
[1] = target: T1, human EGFR E746-A750 deletion and T790M Mutation (Homo sapiens, UniProt P00533, DEL746-750/T790M); test: Ba/F3-EGFR-Del/T790M cell anti-proliferative assay (CellTiter 96 MTS, 72 h); details: Ba/F3-EGFR-Del/T790M cells
T1 construct: expressed in transfected cells; host or cells: Ba/F3 (murine pro-B) cells transduced with lentivirus from pLVX-IRES puro
Summary of the method: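 Compound exposure: 72 h, 37 °C, 4-fold series topping at 10,000 nM. Target cells are Ba/F3 transduced with EGFR exon 19 deletion plus T790M, selected by puromycin and IL-3 withdrawal. Viable cell number inferred from MTS metabolic conversion, A490 read 2 h after reagent addition.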

[2] = target: T2, human EGFR exon 20 insertion ASV (V769_D770insASV) (Homo sapiens, UniProt P00533, INS769ASV); test: Ba/F3-EGFR-Exon20-ASV cell anti-proliferative assay (CellTiter 96 MTS, 72 h); details: Ba/F3-EGFR-Exon20-ASV cells
T2 construct: expressed in transfected cells; host or cells: Ba/F3 (murine pro-B) cells transduced with lentivirus from pLVX-IRES puro
T2 sequence (P00533 with tags, fused parts or gaps INS769ASV): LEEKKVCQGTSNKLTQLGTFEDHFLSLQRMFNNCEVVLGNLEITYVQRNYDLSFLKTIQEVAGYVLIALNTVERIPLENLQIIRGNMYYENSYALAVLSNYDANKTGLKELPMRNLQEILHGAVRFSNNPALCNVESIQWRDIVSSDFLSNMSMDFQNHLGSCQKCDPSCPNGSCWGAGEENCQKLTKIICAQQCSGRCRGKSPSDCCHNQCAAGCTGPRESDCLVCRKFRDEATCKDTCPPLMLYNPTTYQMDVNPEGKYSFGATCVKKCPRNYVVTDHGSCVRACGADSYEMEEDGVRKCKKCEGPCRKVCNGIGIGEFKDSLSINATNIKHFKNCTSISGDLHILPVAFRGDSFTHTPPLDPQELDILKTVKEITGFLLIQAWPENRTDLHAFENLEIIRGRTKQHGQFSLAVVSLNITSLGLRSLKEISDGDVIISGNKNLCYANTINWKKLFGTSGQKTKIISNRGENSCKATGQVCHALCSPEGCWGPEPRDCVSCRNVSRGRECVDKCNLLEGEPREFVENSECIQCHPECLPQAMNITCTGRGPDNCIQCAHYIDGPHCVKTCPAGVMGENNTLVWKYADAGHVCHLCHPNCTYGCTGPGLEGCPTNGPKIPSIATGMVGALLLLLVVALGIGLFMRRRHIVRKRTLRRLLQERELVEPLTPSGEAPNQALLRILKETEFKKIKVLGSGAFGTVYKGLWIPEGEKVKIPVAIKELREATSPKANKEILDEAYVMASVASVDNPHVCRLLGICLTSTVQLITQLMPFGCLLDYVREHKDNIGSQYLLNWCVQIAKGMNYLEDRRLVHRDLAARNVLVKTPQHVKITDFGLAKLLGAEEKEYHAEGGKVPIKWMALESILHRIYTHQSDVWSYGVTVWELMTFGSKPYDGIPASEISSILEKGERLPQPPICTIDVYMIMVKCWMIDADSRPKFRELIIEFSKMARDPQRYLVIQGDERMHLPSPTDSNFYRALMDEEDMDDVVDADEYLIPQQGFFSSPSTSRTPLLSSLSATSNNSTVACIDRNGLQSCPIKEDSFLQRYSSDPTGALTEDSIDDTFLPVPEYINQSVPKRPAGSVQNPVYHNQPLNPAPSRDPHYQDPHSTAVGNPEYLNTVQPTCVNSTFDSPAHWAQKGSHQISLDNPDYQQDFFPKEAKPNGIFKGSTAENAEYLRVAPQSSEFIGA
Summary of the method: (§1)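 Viable-cell readout used absorbance at 490 nm of MTS-derived formazan, 2 h after reagent addition, following 72 h compound treatment at 37 °C, 5% CO2. Cells: puromycin-selected, IL-3-depleted Ba/F3 expressing EGFR exon 20 ASV or NPG; dosing 4-fold series from 10,000 nM.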

[3] = target: T3, Her2 exon 20 YVMA insertion (A775_G776ins YVMA) (Homo sapiens, UniProt P04626, INS775YVMA); test: Ba/F3-Her2 Exon20 YVMA cell anti-proliferative assay (CellTiter 96 MTS, 72 h); details: Ba/F3-Her2 Exon20 YVMA cells
T3 construct: expressed in transfected cells; host or cells: Ba/F3 (murine pro-B) cells transduced with lentivirus from pLVX-IRES puro
T3 sequence (P04626 with tags, fused parts or gaps INS775YVMA): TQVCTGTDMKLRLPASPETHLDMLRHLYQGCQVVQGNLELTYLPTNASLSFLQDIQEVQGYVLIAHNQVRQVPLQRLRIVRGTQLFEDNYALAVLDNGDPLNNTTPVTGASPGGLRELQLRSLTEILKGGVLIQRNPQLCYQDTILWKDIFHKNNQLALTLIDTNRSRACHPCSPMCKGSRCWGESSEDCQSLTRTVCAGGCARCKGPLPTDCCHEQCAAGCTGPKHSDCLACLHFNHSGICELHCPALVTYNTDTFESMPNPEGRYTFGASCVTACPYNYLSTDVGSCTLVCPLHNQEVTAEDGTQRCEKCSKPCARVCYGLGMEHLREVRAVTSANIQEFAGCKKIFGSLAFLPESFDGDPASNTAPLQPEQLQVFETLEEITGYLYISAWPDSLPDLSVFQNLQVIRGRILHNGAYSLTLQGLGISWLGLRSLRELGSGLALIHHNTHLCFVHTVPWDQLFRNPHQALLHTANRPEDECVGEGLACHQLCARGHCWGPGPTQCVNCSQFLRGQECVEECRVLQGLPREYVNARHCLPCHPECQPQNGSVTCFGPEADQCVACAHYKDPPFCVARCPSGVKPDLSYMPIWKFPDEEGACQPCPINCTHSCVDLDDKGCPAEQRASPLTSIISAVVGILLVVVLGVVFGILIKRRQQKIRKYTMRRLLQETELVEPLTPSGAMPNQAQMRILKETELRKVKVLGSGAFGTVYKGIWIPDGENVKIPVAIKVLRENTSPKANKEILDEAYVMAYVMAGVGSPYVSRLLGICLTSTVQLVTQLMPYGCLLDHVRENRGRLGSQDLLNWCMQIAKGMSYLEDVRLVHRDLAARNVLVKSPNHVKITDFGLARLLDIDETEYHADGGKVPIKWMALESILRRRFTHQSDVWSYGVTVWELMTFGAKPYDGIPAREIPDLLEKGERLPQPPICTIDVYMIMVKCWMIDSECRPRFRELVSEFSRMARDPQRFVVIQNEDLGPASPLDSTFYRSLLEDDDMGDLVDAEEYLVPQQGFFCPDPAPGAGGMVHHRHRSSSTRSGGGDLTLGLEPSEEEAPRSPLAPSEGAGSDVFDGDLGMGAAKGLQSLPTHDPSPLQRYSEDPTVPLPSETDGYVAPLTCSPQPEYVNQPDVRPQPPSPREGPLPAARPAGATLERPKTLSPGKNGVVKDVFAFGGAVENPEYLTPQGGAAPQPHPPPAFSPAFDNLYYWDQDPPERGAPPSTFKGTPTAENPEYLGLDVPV
Summary of the method: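 Anti-proliferation: compound series (top 10,000 nM, 4-fold steps) was applied to Ba/F3-Her2 Exon20 YVMA cells grown without IL-3 for 72 h. Viability was read colorimetrically (CellTiter 96 Aqueous One, A490, 2 h reagent incubation).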

[4] = target: T4, human EGFR exon 20 insertion NPG (H773_V774insNPG) (Homo sapiens, UniProt P00533, INS772GNP); test: Ba/F3-EGFR-Exon20-NPG cell anti-proliferative assay (CellTiter 96 MTS, 72 h); details: Ba/F3-EGFR-Exon20-NPG cells
T4 construct: expressed in transfected cells; host or cells: Ba/F3 (murine pro-B) cells transduced with lentivirus from pLVX-IRES puro
T4 sequence (P00533 with tags, fused parts or gaps INS772GNP): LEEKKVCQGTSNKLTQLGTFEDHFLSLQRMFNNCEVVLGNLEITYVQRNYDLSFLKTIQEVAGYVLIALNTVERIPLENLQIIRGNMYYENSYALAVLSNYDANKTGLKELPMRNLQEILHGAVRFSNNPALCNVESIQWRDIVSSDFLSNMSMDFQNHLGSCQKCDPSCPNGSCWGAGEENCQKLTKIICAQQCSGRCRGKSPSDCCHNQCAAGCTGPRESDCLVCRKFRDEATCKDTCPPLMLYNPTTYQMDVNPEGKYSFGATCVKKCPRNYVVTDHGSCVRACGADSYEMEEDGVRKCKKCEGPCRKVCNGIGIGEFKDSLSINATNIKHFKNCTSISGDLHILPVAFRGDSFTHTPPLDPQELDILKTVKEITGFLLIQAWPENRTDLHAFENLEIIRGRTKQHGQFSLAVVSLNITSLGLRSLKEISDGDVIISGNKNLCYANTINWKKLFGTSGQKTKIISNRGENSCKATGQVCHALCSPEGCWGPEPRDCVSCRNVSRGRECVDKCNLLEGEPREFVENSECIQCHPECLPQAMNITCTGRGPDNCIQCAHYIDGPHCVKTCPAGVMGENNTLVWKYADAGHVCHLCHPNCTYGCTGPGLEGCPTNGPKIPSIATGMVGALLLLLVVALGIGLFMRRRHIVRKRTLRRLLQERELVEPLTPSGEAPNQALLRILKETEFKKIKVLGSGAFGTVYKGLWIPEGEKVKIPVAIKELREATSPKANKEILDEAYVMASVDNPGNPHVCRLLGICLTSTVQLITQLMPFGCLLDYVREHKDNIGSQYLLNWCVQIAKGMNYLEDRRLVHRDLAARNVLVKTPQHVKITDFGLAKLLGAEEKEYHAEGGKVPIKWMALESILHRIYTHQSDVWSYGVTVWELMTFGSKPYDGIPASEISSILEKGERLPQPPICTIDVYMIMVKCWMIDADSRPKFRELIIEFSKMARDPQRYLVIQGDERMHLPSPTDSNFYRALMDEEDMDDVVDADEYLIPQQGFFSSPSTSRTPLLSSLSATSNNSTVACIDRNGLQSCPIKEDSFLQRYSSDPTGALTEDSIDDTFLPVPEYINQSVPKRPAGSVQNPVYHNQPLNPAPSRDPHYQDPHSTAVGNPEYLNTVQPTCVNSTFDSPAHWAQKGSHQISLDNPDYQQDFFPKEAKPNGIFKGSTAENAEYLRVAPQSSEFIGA
Summary of the method: as §1

[5] = target: T5, human EGFR L858R and T790M double mutation (Homo sapiens, UniProt P00533, L858R/T790M); test: Ba/F3-EGFR L858R/T790M cell anti-proliferative assay (CellTiter 96 MTS, 72 h); details: Ba/F3-EGFR L858R/T790M cells
T5 construct: expressed in transfected cells; host or cells: Ba/F3 (murine pro-B) cells transduced with lentivirus from pLVX-IRES puro
T5 sequence (P00533 25-1210 T790M/L858R): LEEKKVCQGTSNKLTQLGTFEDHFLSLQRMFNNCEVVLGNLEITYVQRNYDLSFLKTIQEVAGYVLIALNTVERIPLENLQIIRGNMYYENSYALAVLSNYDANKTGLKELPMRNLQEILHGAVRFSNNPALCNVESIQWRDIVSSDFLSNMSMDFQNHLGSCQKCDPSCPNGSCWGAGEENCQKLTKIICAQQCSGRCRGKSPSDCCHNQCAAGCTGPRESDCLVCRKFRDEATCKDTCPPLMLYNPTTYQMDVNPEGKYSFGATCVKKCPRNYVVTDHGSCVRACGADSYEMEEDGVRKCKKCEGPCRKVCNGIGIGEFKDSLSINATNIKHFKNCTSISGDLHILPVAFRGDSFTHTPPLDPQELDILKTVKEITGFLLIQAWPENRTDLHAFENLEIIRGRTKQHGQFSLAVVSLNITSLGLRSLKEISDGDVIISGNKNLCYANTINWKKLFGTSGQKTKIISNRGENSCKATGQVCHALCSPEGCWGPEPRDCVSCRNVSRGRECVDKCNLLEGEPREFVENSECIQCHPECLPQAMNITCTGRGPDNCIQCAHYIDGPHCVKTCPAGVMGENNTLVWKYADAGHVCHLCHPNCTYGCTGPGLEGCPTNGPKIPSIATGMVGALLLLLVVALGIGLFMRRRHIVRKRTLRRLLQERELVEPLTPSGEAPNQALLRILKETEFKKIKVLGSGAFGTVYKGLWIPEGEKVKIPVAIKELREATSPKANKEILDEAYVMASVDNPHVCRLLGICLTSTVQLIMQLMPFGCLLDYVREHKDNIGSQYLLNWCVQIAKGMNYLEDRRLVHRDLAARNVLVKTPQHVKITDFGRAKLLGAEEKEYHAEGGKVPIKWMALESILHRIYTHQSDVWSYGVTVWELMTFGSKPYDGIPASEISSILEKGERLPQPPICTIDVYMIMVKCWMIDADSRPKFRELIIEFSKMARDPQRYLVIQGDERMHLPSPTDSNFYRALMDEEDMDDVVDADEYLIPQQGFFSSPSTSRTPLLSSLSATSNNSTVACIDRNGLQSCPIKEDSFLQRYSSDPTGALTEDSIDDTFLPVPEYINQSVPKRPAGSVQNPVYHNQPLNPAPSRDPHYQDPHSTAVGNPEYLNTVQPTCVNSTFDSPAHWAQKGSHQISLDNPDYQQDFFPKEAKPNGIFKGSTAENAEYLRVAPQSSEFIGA
Description: An expression vector, pLVX-IRES puro (Clontech) coding for human EGFR L858R and T790M double mutation, was transfected into HEK293 cells by the Trans-Lentiviral ORF Packaging System (Thermo Scientific), to produce virus encoding EGFR L858R and T790M double mutations. Ba/F3 (DSMZ) cells maintained in RPMI 1640 medium supplemented with 10% fetal bovine serum, 200 μM L-glutamine/l 200 μg/mL penicillin/200 μg/mL streptomycin (Life Technology) and 10 ng/mL IL-3 (R&D system), were infected by EGFR L858R and T790M double mutation virus and subsequently selected by puromycin (Life Technology) selection and IL-3 depletion. […] The anti-proliferative activity of compounds was determined as follows: BaF3-EGFR L858R/T790M cells seeded in 96 well plates (2500 cells/well) were treated with test compound (dissolved in DMSO) at a series of concentrations (4-fold dilution, top concentration: 10,000 nM). The plates were incubated for 72 h in a 37° C. incubator with 5% CO2, and the number of viable cells in each well were measured indirectly by CellTiter 96® Aqueous One Solution Cell Proliferation Assay (Promega; this assay is a colorimetric method for determining the number of viable cells through measurement of their metabolic activity by detection of enzymatic conversion of tetrazolium salts into blue formazan derivatives). Reagent (20 μL) was added into each well, and the plates were returned to the incubator for 2 h. The absorbance in each well was then measured at 490 nm using an Envision plate reader (Perkin Elmer).

C=CC(=O)Nc1cc(Nc2ncc(C(N)=O)c(-c3cn4c5c(cccc35)CCC4)n2)c(OC)cc1N(C)CCN(C)C [Example 46, 2-((5-acrylamido-4-((2-(dimethylamino)ethyl)(methyl)amino)-2-methoxyphenyl)amino)-4-(5,6-dihydro-4H-pyrrolo[3,2,1-ij]quinolin-1-yl)pyrimidin-5-carboxamide]
EGFR exon 19 deletion and exon 20 T790M mutation IC50 [1]: A (IC50 value for the indicated mutant below about 100 nM)
IC50 [2]: < 100 nM
IC50 [3]: 100 to 500 nM
IC50 [4]: < 100 nM
EGFR exon 21 L858R and exon 20 T790M mutation IC50 [5]: A (IC50 value for the indicated mutant below about 100 nM)

C=CC(=O)Nc1cc(Nc2ncc(C#N)c(-c3cn4c5c(cccc35)CCC4)n2)c(OC)cc1N(C)CCN(C)C [Example 14, N-(5-((5-cyano-4-(5,6-dihydro-4H-pyrrolo[3,2,1-ij]quinolin-1-yl)pyrimidin-2-yl)amino)-2-((2-(dimethylamino)ethyl)(methyl)amino)-4-methoxyphenyl)acrylamide]
EGFR exon 19 deletion and exon 20 T790M mutation IC50 [1]: A (IC50 value for the indicated mutant below about 100 nM)
IC50 [2]: < 100 nM
IC50 [3]: < 100 nM
IC50 [4]: > 1000 nM
EGFR exon 21 L858R and exon 20 T790M mutation IC50 [5]: A (IC50 value for the indicated mutant below about 100 nM)

C=CC(=O)Nc1cc(Nc2ncc(C#N)c(-c3cn4c5c(cccc35)OCC4)n2)c(OC)cc1N(C)CCN(C)C [Example 4, N-(5-((5-cyano-4-(2,3-dihydro-[1,4]oxazino[2,3,4-hi]indol-6-yl)pyrimidin-2-yl)amino)-2-((2-(dimethylamino)ethyl)(methyl)amino)-4-methoxyphenyl)acrylamide]
EGFR exon 19 deletion and exon 20 T790M mutation IC50 [1]: A (IC50 value for the indicated mutant below about 100 nM)
IC50 [2]: < 100 nM
IC50 [3]: < 100 nM
IC50 [4]: < 100 nM
EGFR exon 21 L858R and exon 20 T790M mutation IC50 [5]: A (IC50 value for the indicated mutant below about 100 nM)

C=CC(=O)Nc1cc(Nc2ncc(CCC3CCOC3)c(-c3cn4c5c(cccc35)CCC4)n2)c(OC)cc1N(C)CCN(C)C (stereo not shown) [Example 36, N-(5-((4-(5,6-dihydro-4H-pyrrolo[3,2,1-ij]quinolin-1-yl)-5-(2-(tetrahydrofuran-3-yl)ethyl)pyrimidin-2-yl)amino)-2-((2-(dimethylamino)ethyl)(methyl)amino)-4-methoxyphenyl)acrylamide]
EGFR exon 19 deletion and exon 20 T790M mutation IC50 [1]: A (IC50 value for the indicated mutant below about 100 nM)
IC50 [2]: 100 to 500 nM
IC50 [3]: 100 to 500 nM
IC50 [4]: < 100 nM
EGFR exon 21 L858R and exon 20 T790M mutation IC50 [5]: B (IC50 value for the indicated mutant between about 100 to about 500 nM)

C=CC(=O)Nc1cc(Nc2ncc(-c3ncc[nH]3)c(-c3cn4c5c(cccc35)CCC4)n2)c(OC)cc1N(C)CCN(C)C [Example 97]
EGFR exon 19 deletion and exon 20 T790M mutation IC50 [1]: B (IC50 value for the indicated mutant between about 100 to about 500 nM)
IC50 [2]: 100 to 500 nM
IC50 [3]: > 1000 nM
IC50 [4]: 100 to 500 nM
EGFR exon 21 L858R and exon 20 T790M mutation IC50 [5]: C (IC50 value for the indicated mutant between greater than about 500 to about 1 μM)

C=CC(=O)Nc1cc(Nc2ncc(C#N)c(-c3cn4c5c(cccc35)CCC4)n2)c(OC)cc1N(C)CCNC [Example 84, N-(5-((5-cyano-4-(5,6-dihydro-4H-pyrrolo[3,2,1-ij]quinolin-1-yl)pyrimidin-2-yl)amino)-4-methoxy-2-(methyl(2-(methylamino)ethyl)amino)phenyl)acrylamide]
EGFR exon 19 deletion and exon 20 T790M mutation IC50 [1]: A (IC50 value for the indicated mutant below about 100 nM)
IC50 [2]: < 100 nM
IC50 [3]: < 100 nM
IC50 [4]: > 1000 nM
EGFR exon 21 L858R and exon 20 T790M mutation IC50 [5]: A (IC50 value for the indicated mutant below about 100 nM)

C=CC(=O)Nc1cc(Nc2ncc(Cl)c(-c3cn4c5c(cccc35)CCC4)n2)c(OC)cc1N(C)CCN(C)C [Example 11, N-(5-((5-chloro-4-(5,6-dihydro-4H-pyrrolo[3,2,1-ij]quinolin-1-yl)pyrimidin-2-yl)amino)-2-((2-(dimethylamino)ethyl)(methyl)amino)-4-methoxyphenyl)acrylamide]
EGFR exon 19 deletion and exon 20 T790M mutation IC50 [1]: A (IC50 value for the indicated mutant below about 100 nM)
IC50 [2]: < 100 nM
IC50 [3]: 100 to 500 nM
IC50 [4]: < 100 nM
EGFR exon 21 L858R and exon 20 T790M mutation IC50 [5]: A (IC50 value for the indicated mutant below about 100 nM)

C=CC(=O)Nc1cc(Nc2ncc(C#N)c(-c3cn4c5c(cccc35)CCC4)n2)c(OC)cc1N(C)CCN(C)C(C)C [Example 26, N-(5-((5-cyano-4-(5,6-dihydro-4H-pyrrolo[3,2,1-ij]quinolin-1-yl)pyrimidin-2-yl)amino)-2-((2-(isopropyl(methyl)amino)ethyl)(methyl)amino)-4-methoxyphenyl)acrylamide]
EGFR exon 19 deletion and exon 20 T790M mutation IC50 [1]: A (IC50 value for the indicated mutant below about 100 nM)
IC50 [2]: < 100 nM
IC50 [3]: < 100 nM
IC50 [4]: < 100 nM
EGFR exon 21 L858R and exon 20 T790M mutation IC50 [5]: A (IC50 value for the indicated mutant below about 100 nM)
